Patent US5008267A, “Pyrimidinedione compounds, method of producing the same and antiarrythmic agents containing the same” (Mitsui Toatsu Chemicals, Incorporated, priority 1988, dated 1991)
Where a name gives a salt, the structure may show the parent alone.

Legend:
[1] = tested on: ventricular muscle refractory period; test: Influence on ventricular muscle refractory period (ERP); format: in vivo, mongrel dog; conditions: Canis lupus familiaris, iv, i.v., (W-Y)/Y×100, read-out: ERP (%; extensibility of refractory period)
In short: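 Anesthetized (pentobarbital 30 mg/kg i.v.) mongrel dog, compound given i.v. or intraduodenally; right ventricle paced via bipolar electrodes at 400 msec, 4 msec pulses, twice threshold, sinus pacemaker abolished with alcohol. Refractory period taken as shortest inter-train interval (10 msec steps) losing response; ERP (%) = (after − before)/before × 100.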

[2] = tested on: Purkinje fiber of the right ventricular free wall (myocardial action potential); test: Influence on myocardial action potential duration time (APD75), isolated right ventricular free wall, microelectrode in Purkinje fiber; format: cell-based, dog; conditions: Canis lupus familiaris, 20 min, 20 minutes' incubation, (B-A)/A×100, read-out: APD75 (%); for activation at 1 µg/mL: 1.0 μg/ml; for activation at 3 µg/mL: 3.0 μg/ml; for activation at 10 µg/mL: 10.0 μg/ml
[3] = Toxicity test, mortality rate 24 hours after administration; conditions: mouse, in vivo
Method: Each of the compounds prepared in the above-mentioned examples was administered into a mouse (ddY strain, male). In each case, oral administration (p.o.) and intra peritoneal administration (i.p.) were separately carried out in a dose of 300 mg/kg and 250 mg/kg, respectively.
A mortality rate (number of specimens: one group=2 to 4 mice) of the mice 24 hours after the administration was calculated, and the results are set forth in Table 3.
Following the same procedure as in Toxicity Test 1, toxicity of the respective compounds prepared in the above examples in Table 5 was tested to calculate a mortality rate of mice.
Administration was made by oral administration (p.o.) in an amount of 300 mg/kg of each compound for one mouse.
Following the same procedure as in Toxicity Test 1, toxicity of the respective compounds prepared in the above examples in Table 7 was tested to calculate a mortality rate of mice.

Compound | change in vivo at 0.1 mg/kg [1] | change in vivo at 0.3 mg/kg [1] | change in vivo at 1 mg/kg [1] | change in vivo at 3 mg/kg [1] | activation at 1 µg/mL [2] | activation at 3 µg/mL [2] | mortality at 24 h ([3]; po, 300 mg/kg (p.o.)) | activation at 10 µg/mL [2] | mortality at 24 h ([3]; ip, 250 mg/kg (i.p.))
C=CCOc1cc([N+](=O)[O-])ccc1OCCCN1CCN(c2cc(=O)n(C)c(=O)n2C)CC1 [Compound 161, 1,3-dimethyl-6-{4-[3-(2-allyloxy-4-nitrophenyloxy)propyl]piperazin-1-yl}-2,4(1H,3H)-pyrimidinedione hydrochloride] | 0% | 6.7% | 6.7% | 6.7% | 26% | 39% | 0% |  | 
CCN(CCNCCCCc1ccc([N+](=O)[O-])cc1)c1cc(=O)n(C)c(=O)n1C [Compound 26, 1,3-dimethyl-6-{N-ethyl-N-<2-[4-(4-nitrophenyl)butylamino]ethyl>amino}-2,4(1H,3H)-pyrimidinedione oxalate] | 6.5% | 6.5% | 6.5% | 6.5% | 20% | 30% | 0% | 35% | 50%
Cn1c(N2CCN(CCCOc3cc([N+](=O)[O-])ccc3O)CC2)cc(=O)n(C)c1=O [Compound 145, 1,3-dimethyl-6-{4-[3-(2-hydroxy-5-nitrophenyloxy)propyl]piperazin-1-yl}-2,4(1H,3H)-pyrimidinedione hydrochloride] | 0% | 6.7% | 6.7% | 20% | 7% | 16% | 0% | 23% | 
CCN(CCCc1ccc([N+](=O)[O-])cc1)CCNc1cc(=O)n(C)c(=O)n1C [Compound 4, 1,3-dimethyl-6-{2-<N-ethyl-N-[3-(4-nitrophenyl)propyl]amino>ethylamino}-2,4(1H,3H)-pyrimidinedione hydrochloride] | 5.6% | 11.1% | 16.7% | 16.7% | 11% | 16% | 0% |  | 0%
CSc1ccc(OCCCN2CCN(c3cc(=O)n(C)c(=O)n3C)CC2)c([N+](=O)[O-])c1 [Compound 147, 1,3-dimethyl-6-{4-[3-(4-methylthio-2-nitrophenyloxy)propyl]piperazin-1-yl}-2,4(1H,3H)-pyrimidinedione hydrochloride] | 0% | 0% | 0% |  | 14% | 18% | 0% |  | 
Cn1c(N2CCN(CCCOc3ccc([N+](=O)[O-])cc3Cl)CC2)cc(=O)n(C)c1=O [Compound 141, 1,3-dimethyl-6-{4-[3-(2-chloro-4-nitrophenyloxy)propyl]piperazin-1-yl}-2,4(1H,3H)-pyrimidinedione hydrochloride] | 0% | 2.1% | 2.1% | 15% | 27% | 41% | 0% |  | 
Cn1c(N2CCN(CCCOc3ccc(C(=O)c4ccccc4)cc3[N+](=O)[O-])CC2)cc(=O)n(C)c1=O [Compound 78, 1,3-dimethyl-6-{4-[3-(4-benzoyl-2-nitrophenoxy)propyl]piperazin-1-yl}-2,4(1H,3H)-pyrimidinedione oxalate] | 6.7% | 13.3% | 20% | 26.7% | 19% | 42% | 0% |  | 
COC(=O)CN(CCCNc1ccc([N+](=O)[O-])cc1)CCNc1cc(=O)n(C)c(=O)n1C [Compound 166, 1,3-dimethyl-6-{2-[N-methoxycarbonylmethyl-3-(4-nitroanilino)propylamino]ethylamino}-2,4(1H,3H)-pyrimidinedione hydrochloride] | 6.7% | 6.7% | 6.7% | 6.7% | 8% | 18% | 0% |  | 
CCN(CCNc1ccc([N+](=O)[O-])cc1)CCNc1cc(=O)n(C)c(=O)n1C [Compound 71, 1,3-dimethyl-6-{2-[N-ethyl-2-(4-nitroanilino)ethylamino]ethylamino}-2,4(1H,3H)-pyrimidinedione oxalate] | 6.7% | 7.7% | 13.4% | 16.6% | 8% | 15% | 0% | 17% | 
